Common to all, as to test: NCI-60 cell line screen, 48 h
For experiment [1], the system named is OVCAR-8.
Experiment [2] has as its system SR.
Experiment [3] has as its system SK-MEL-5.
For experiment [4], the system named is RXF 393.
For experiment [5], the system named is LOX IMVI.
Experiment [6] relates to K562.
Experiment [7] concerns MDA-MB-435.
The subject of experiment [8] is T47D.
The subject of experiment [9] is 786-0.
The test system of experiment [10] is IGROV-1.
Experiment [11] concerns HT-29.
In experiment [12] the test system is RPMI-8226.
The subject of experiment [13] is CAKI-1.
For experiment [14], the system named is SK-MEL-2.
In experiment [15] the test system is MDA-MB-231.
Experiment [16] concerns UO-31.
Experiment [17] concerns SK-MEL-28.
For experiment [18], the system named is PC-3.
The subject of experiment [19] is COLO 205.

Data on ten compounds can be found in ChEMBL document CHEMBL1201862, “PubChem BioAssay data set” (2004).

SMILES strings stand for the structures.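 Compound exposure: 48 hours, 5 concentrations, 96-well plates. Here, GI50 denotes the concentration required for 50% inhibition of growth.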 The source made the active and inactive calls. Cut-off read from the data, not from the text of the source: active = GI50 up to about 1.1 µM and inactive = higher.

As for `CN(CC(=O)O)c1ccc(/C=C/c2ccnc3ccccc23)cc1`, the GI50 in experiment [1] is 27.7 µM (inactive); in [2], 6.93 µM (inactive); in experiment [3], 16 µM (inactive); in experiment [4] it was 14.8 µM (inactive); in experiment [5], 22.3 µM (inactive); in [6], 23.7 µM (inactive). The GI50 in experiment [7] was 14.1 µM (inactive); in experiment [8] it was 20.2 µM (inactive); in experiment [9] it was 28.1 µM (inactive); in experiment [10], 13.9 µM (inactive); in experiment [11] it was 23 µM (inactive); in experiment [12], 13.3 µM (inactive). Moreover, the GI50 in [13] is 18.5 µM (inactive); in [14], 18.8 µM (inactive); in experiment [15] it was 27 µM (inactive); in experiment [16], 15.7 µM (inactive); in [17] it was 40 µM (inactive); in experiment [18], 27.4 µM (inactive). The GI50 in [19] was 16 µM (inactive).

With `CCOC(C)O[C@H]1C(=O)OCC1(C)C` (stereo not given in full), the GI50 in experiment [1] was > 100 µM (inactive); in experiment [2], > 100 µM (inactive); in [3], > 100 µM (inactive); in [4], > 100 µM (inactive); in experiment [5] it was > 100 µM (inactive); in experiment [6], 80.7 µM (inactive). In addition, the GI50 in [7], in experiment [8], in experiment [9], in experiment [10], in experiment [11] and in experiment [12] was > 100 µM (inactive) in each case. In addition, the GI50 in experiment [13], in experiment [14], in experiment [15], in [16], in experiment [17] and in experiment [18] was > 100 µM (inactive) in each case. The GI50 in [19] is > 100 µM (inactive).

On to `CC(C)=CC(Cc1ccccc1)S(=O)(=O)c1nc2ccccc2s1` (stereo not given), for which the GI50 in experiment [1] was 15.4 µM (inactive); in experiment [2], 1.98 µM (inactive); in experiment [3] it was 13.6 µM (inactive); in [4], 19.7 µM (inactive); in experiment [5] it was 2.69 µM (inactive); in experiment [6], 12.6 µM (inactive). Moreover, the GI50 in experiment [7] was 11 µM (inactive); in experiment [8] it was 23.6 µM (inactive); in experiment [9], 14.6 µM (inactive); in [10] it was 19.7 µM (inactive); in experiment [11] it was 19.3 µM (inactive); in experiment [12] it was 10.5 µM (inactive). Besides, the GI50 in experiment [13] was 4.05 µM (inactive); in experiment [14], 13.1 µM (inactive); in experiment [15] it was 19.8 µM (inactive); in [16] it was 13.8 µM (inactive); in experiment [17], 16.1 µM (inactive); in experiment [18] it was 16.7 µM (inactive). The GI50 in experiment [19] was 17 µM (inactive).

For the compound `CCOC(=O)CN1C(=O)c2c(NC(=O)C(=O)O)cccc2S1(=O)=O`, the GI50 in experiment [1], in [2], in experiment [3], in experiment [4], in experiment [5] and in experiment [6] was > 100 µM (inactive) each time. In addition, the GI50 in experiment [7], in experiment [8], in experiment [9], in experiment [10], in experiment [11] and in [12] was > 100 µM (inactive) in each case. For the same compound, the GI50 in experiment [13], in experiment [14], in experiment [15], in [16], in [17] and in [18] was > 100 µM (inactive) throughout. Besides, in experiment [19], the GI50 is > 100 µM (inactive).

For `O=C1CSC2(CC(/C=C/c3ccccc3)=NN2c2cccc(S(=O)(=O)O)c2)N1c1nc2ccccc2s1` (stereo not given), the GI50 in [1] is 17.9 µM (inactive); in [2], 21.8 µM (inactive); in [3] it was 44.6 µM (inactive); in [4] it was 22.1 µM (inactive); in experiment [5] it was 9.59 µM (inactive); in experiment [6] it was 35.1 µM (inactive). In addition, the GI50 in experiment [7] was 19.5 µM (inactive); in experiment [8] it was 17.1 µM (inactive); in [9], 18.3 µM (inactive); in [10], 16.1 µM (inactive); in experiment [11], 38.3 µM (inactive); in [12], 24.6 µM (inactive). Further, the GI50 in [13] was 38.5 µM (inactive); in [14], 22.6 µM (inactive); in [15] it was 24.5 µM (inactive); in experiment [16], 18.5 µM (inactive); in experiment [17], 62.4 µM (inactive); in experiment [18], 25.6 µM (inactive). Besides, in experiment [19], the GI50 is > 100 µM (inactive).

As to `c1ccc(C(c2cccc3c2ccc2ccccc23)C(c2ccccc2)c2cccc3c2ccc2ccccc23)cc1` (stereo not given), the GI50 in experiment [1], in experiment [2], in experiment [3], in experiment [4], in experiment [5] and in experiment [6] was > 100 µM (inactive) in each case. Besides, the GI50 in [7], in [8], in experiment [9], in experiment [10], in experiment [11] and in experiment [12] was > 100 µM (inactive) each time. Further, the GI50 in experiment [13], in experiment [14], in experiment [15], in experiment [16], in experiment [17] and in [18] was > 100 µM (inactive) throughout. In addition, in [19], the GI50 was > 100 µM (inactive).

Turning to `N#CC12C(=O)N3C(=NC(c4ccco4)NC3c3ccco3)C1(C#N)C(c1ccco1)NC1=C2CCCC1` (stereo not given), the GI50 in experiment [1], in experiment [2], in [3], in [4], in experiment [5] and in [6] was > 100 µM (inactive) in each case. Besides, the GI50 in experiment [7], in [8], in [9], in experiment [10], in experiment [11] and in [12] was > 100 µM (inactive) each time. The GI50 in [13], in [14], in experiment [15], in experiment [16], in experiment [17] and in [18] was > 100 µM (inactive) throughout. The GI50 in [19] is > 100 µM (inactive).

Regarding `O=C1OC(=O)C2=C1C(c1cccs1)C=C(c1cccnc1)N2c1ccncc1` (stereo not given), the GI50 was 21.6 µM (inactive) in experiment [1]; 1.12 µM (active) in [2]; 17.4 µM (inactive) in experiment [3]; 16.2 µM (inactive) in [4]; 13.2 µM (inactive) in experiment [5]; 9.12 µM (inactive) in [6]. Further, the GI50 in experiment [7] is 20 µM (inactive); in experiment [8], 18.2 µM (inactive); in experiment [9], 17.3 µM (inactive); in [10] it was 13.8 µM (inactive); in experiment [11] it was 16.8 µM (inactive); in experiment [12] it was 13 µM (inactive). In addition, the GI50 in [13] was 15.1 µM (inactive); in experiment [14] it was 15.4 µM (inactive); in [15] it was 19.9 µM (inactive); in [16] it was 15.6 µM (inactive); in experiment [17], 24.3 µM (inactive); in experiment [18] it was 12.2 µM (inactive). For the same compound, in [19], the GI50 is 17.5 µM (inactive).

For the compound `CCOC(=O)NC(Nc1ccc(C(=O)O)cc1)(C(F)(F)F)C(F)(F)F`, the GI50 is > 100 µM (inactive) in experiment [1]; > 100 µM (inactive) in experiment [2]; > 100 µM (inactive) in [3]; 60.8 µM (inactive) in experiment [4]; > 100 µM (inactive) in experiment [5]; > 100 µM (inactive) in experiment [6]. Besides, the GI50 in experiment [7], in experiment [8], in experiment [9], in [10], in experiment [11] and in experiment [12] was > 100 µM (inactive) in each case. The GI50 in experiment [13], in [14], in [15], in experiment [16], in [17] and in [18] was > 100 µM (inactive) throughout. Besides, the GI50 in experiment [19] is > 100 µM (inactive).

On to `Nc1nc(SC/C=C/c2ccccc2)c2[nH]cnc2n1`, for which the GI50 is 74.5 µM (inactive) in experiment [1]; 45.7 µM (inactive) in experiment [2]; > 100 µM (inactive) in experiment [3]; 51.5 µM (inactive) in [4]; 53.1 µM (inactive) in [5]; 63.2 µM (inactive) in experiment [6]. Besides, the GI50 in experiment [7] is > 100 µM (inactive); in experiment [8], > 100 µM (inactive); in experiment [9] it was > 100 µM (inactive); in experiment [10], 22.2 µM (inactive); in experiment [11], > 100 µM (inactive); in [12], 91.4 µM (inactive). The GI50 in [13] was 38.7 µM (inactive); in experiment [14] it was 91 µM (inactive); in [15], > 100 µM (inactive); in [16], 46.8 µM (inactive); in experiment [17], > 100 µM (inactive); in experiment [18], > 100 µM (inactive). Besides, the GI50 in experiment [19] was > 100 µM (inactive).
